Assay results reported in ChEMBL document CHEMBL1201862, “PubChem BioAssay data set” (2004).
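Results reflect a 48-hour exposure of cells in 96-well plates to compound at five concentrations. GI50: concentration for 50% inhibition of growth.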 Active and inactive are the calls of the source. Rule as the data show it: active = GI50 up to about 1.1 µM and inactive = higher.

How the values were obtained:
Assay in all cases: NCI tumour cell line growth inhibition, 48 h
COLO 205 = system: COLO 205
NCI-H226 = system: NCI-H226
HT-29 = system: HT-29
TK-10 = system: TK-10
M14 = system: M14
NCI-H522 = system: NCI-H522
CAKI-1 = system: CAKI-1
NCI-H460 = system: NCI-H460
A498 = system: A498
BT-549 = system: BT-549
SK-MEL-28 = system: SK-MEL-28
Malme-3M = system: Malme-3M
DU-145 = system: DU-145
OVCAR-5 = system: OVCAR-5
SR = system: SR
OVCAR-4 = system: OVCAR-4
MDA-N = system: MDA-N
LOX IMVI = system: LOX IMVI
U-251 = system: U-251
KM-20L2 = system: KM-20L2

Structure (SMILES)	GI50 (COLO 205)	GI50 (NCI-H226)	GI50 (HT-29)	GI50 (TK-10)	GI50 (M14)	GI50 (NCI-H522)	GI50 (CAKI-1)	GI50 (NCI-H460)	GI50 (A498)	GI50 (BT-549)	GI50 (SK-MEL-28)	GI50 (Malme-3M)	GI50 (DU-145)	GI50 (OVCAR-5)	GI50 (SR)	GI50 (OVCAR-4)	GI50 (MDA-N)	GI50 (LOX IMVI)	GI50 (U-251)	GI50 (KM-20L2)
CC(C)c1ccc(C(c2c(O)oc3ccccc3c2=O)c2c(O)oc3ccccc3c2=O)cc1	18.7 µM (inactive)	20.6 µM (inactive)	20.8 µM (inactive)	24.6 µM (inactive)	19.6 µM (inactive)	20 µM (inactive)	22.8 µM (inactive)	18.7 µM (inactive)	17.7 µM (inactive)	18.1 µM (inactive)	18.9 µM (inactive)	20.6 µM (inactive)	23.8 µM (inactive)	17.6 µM (inactive)	9.64 µM (inactive)	28.4 µM (inactive)	21.5 µM (inactive)	17.7 µM (inactive)	15.1 µM (inactive)	
C=C(C)C1CC2=C(C(=O)OC)C=C(O2)C(C(=C)C)[C@@H]2OC(=O)/C(=C\C1O)[C@H]2N(C)C (some centres undefined)	9.4 µM (inactive)	7.69 µM (inactive)	15 µM (inactive)	1.6 µM (inactive)	12.9 µM (inactive)	2.91 µM (inactive)	7.71 µM (inactive)	15.2 µM (inactive)	17.1 µM (inactive)	9.75 µM (inactive)	13.1 µM (inactive)	12.9 µM (inactive)	12.1 µM (inactive)	16.5 µM (inactive)	6.92 µM (inactive)	5.64 µM (inactive)	11.4 µM (inactive)	8.09 µM (inactive)	15.7 µM (inactive)	
COc1ccc(N2C(=O)C3c4[nH]c5ccccc5c4C4CCC(C(C)C)CC4C3C2=O)cc1 (centres undefined)	> 100 µM (inactive)	> 100 µM (inactive)	> 100 µM (inactive)	> 100 µM (inactive)	> 100 µM (inactive)	> 100 µM (inactive)	> 100 µM (inactive)	> 100 µM (inactive)	> 100 µM (inactive)	> 100 µM (inactive)	> 100 µM (inactive)	42.9 µM (inactive)	> 100 µM (inactive)	> 100 µM (inactive)	40.7 µM (inactive)	> 100 µM (inactive)	> 100 µM (inactive)	> 100 µM (inactive)	38.8 µM (inactive)	
O=C(/C=C/c1ccc2c(c1)OCO2)c1ccc(O)cc1	17.3 µM (inactive)	18.5 µM (inactive)	15.4 µM (inactive)	18.7 µM (inactive)	18.1 µM (inactive)	3.01 µM (inactive)	15.2 µM (inactive)	15 µM (inactive)	23.4 µM (inactive)	14.2 µM (inactive)	19.3 µM (inactive)	15.3 µM (inactive)	16.5 µM (inactive)	17.5 µM (inactive)	1.17 µM (inactive)	18.4 µM (inactive)	10.8 µM (inactive)	11.2 µM (inactive)	13.8 µM (inactive)	
COc1cc2ccc(C(=O)NCCCNC(=O)c3ccc4cc(OC)c(OC)cc4c3)cc2cc1OC	> 100 µM (inactive)	> 100 µM (inactive)	> 100 µM (inactive)	> 100 µM (inactive)	> 100 µM (inactive)	> 100 µM (inactive)	> 100 µM (inactive)	33.7 µM (inactive)	> 100 µM (inactive)	> 100 µM (inactive)	> 100 µM (inactive)	> 100 µM (inactive)	> 100 µM (inactive)	> 100 µM (inactive)	35.5 µM (inactive)	57.8 µM (inactive)	> 100 µM (inactive)	> 100 µM (inactive)	> 100 µM (inactive)	
O=c1cc(CO)oc(C(O)c2ccccc2)c1O (centres undefined)	> 100 µM (inactive)	> 100 µM (inactive)	> 100 µM (inactive)	> 100 µM (inactive)	> 100 µM (inactive)	> 100 µM (inactive)	> 100 µM (inactive)	> 100 µM (inactive)	> 100 µM (inactive)	> 100 µM (inactive)	> 100 µM (inactive)	> 100 µM (inactive)	> 100 µM (inactive)	> 100 µM (inactive)	> 100 µM (inactive)	> 100 µM (inactive)	> 100 µM (inactive)	> 100 µM (inactive)	> 100 µM (inactive)	
Cc1cc(O)c2c(c1O)C(=O)c1c(O)ccc(O)c1C2=O [Cynodontin]	> 100 µM (inactive)	> 100 µM (inactive)	> 100 µM (inactive)	> 100 µM (inactive)	> 100 µM (inactive)	> 100 µM (inactive)	> 100 µM (inactive)	> 100 µM (inactive)	> 100 µM (inactive)	> 100 µM (inactive)		> 100 µM (inactive)	> 100 µM (inactive)	> 100 µM (inactive)	> 100 µM (inactive)	> 100 µM (inactive)	> 100 µM (inactive)	> 100 µM (inactive)	> 100 µM (inactive)	
COC(=O)c1ccc(/C=C2\CCc3ccccc3C2=O)cc1	> 100 µM (inactive)	> 100 µM (inactive)	> 100 µM (inactive)	> 100 µM (inactive)	> 100 µM (inactive)	69.7 µM (inactive)	> 100 µM (inactive)	> 100 µM (inactive)	34.4 µM (inactive)	> 100 µM (inactive)	> 100 µM (inactive)	> 100 µM (inactive)	> 100 µM (inactive)	> 100 µM (inactive)	> 100 µM (inactive)	> 100 µM (inactive)	> 100 µM (inactive)	> 100 µM (inactive)	> 100 µM (inactive)	
COc1cc([C@@H]2c3cc4c(cc3C[C@@H]3COC(=O)C32)OCO4)cc(OC)c1O (some centres undefined)	0.0306 µM (active)	1.39 µM (inactive)	0.034 µM (active)	0.039 µM (active)	0.0344 µM (active)	0.0119 µM (active)	0.0183 µM (active)	0.032 µM (active)	0.211 µM (active)	0.038 µM (active)		0.0121 µM (active)	0.0973 µM (active)		0.011 µM (active)		0.0113 µM (active)	0.0426 µM (active)	0.0432 µM (active)	
O=C1c2cccnc2C(=O)c2c1nc1ccccc1c2-c1ccc2c3c(nc4ccccc42)C(=O)c2cccnc2-c13	2.08 µM (inactive)	0.859 µM (active)	2.38 µM (inactive)	2.76 µM (inactive)	0.405 µM (active)	0.692 µM (active)	1.75 µM (inactive)	1.55 µM (inactive)	2.69 µM (inactive)	2.46 µM (inactive)	2.55 µM (inactive)	1.04 µM (active)	0.359 µM (active)	6.43 µM (inactive)	< 0.01 µM (active)	1.08 µM (active)	2.13 µM (inactive)	0.437 µM (active)	1.75 µM (inactive)	
O=C(OC12CC3CC(CC(C3)C1)C2)c1ccc(NCc2cc(O)ccc2O)cc1	0.285 µM (active)	1.33 µM (inactive)	1.48 µM (inactive)	0.885 µM (active)	1.44 µM (inactive)	0.0776 µM (active)	0.301 µM (active)	2.53 µM (inactive)	1.87 µM (inactive)	0.333 µM (active)	0.489 µM (active)	0.625 µM (active)	3.85 µM (inactive)	1.73 µM (inactive)	0.132 µM (active)	0.433 µM (active)	1.32 µM (inactive)	0.859 µM (active)	0.701 µM (active)	
O=S(=O)(O)c1ccc(NN(c2c(O)ccc3ccccc23)S(=O)(=O)O)cc1	> 100 µM (inactive)	> 100 µM (inactive)	> 100 µM (inactive)	> 100 µM (inactive)	> 100 µM (inactive)	> 100 µM (inactive)	> 100 µM (inactive)	> 100 µM (inactive)	> 100 µM (inactive)	> 100 µM (inactive)	> 100 µM (inactive)	> 100 µM (inactive)	> 100 µM (inactive)	> 100 µM (inactive)	> 100 µM (inactive)	> 100 µM (inactive)	> 100 µM (inactive)	> 100 µM (inactive)	> 100 µM (inactive)	
O=S(=O)(c1ccccc1)N1CCN(S(=O)(=O)c2ccccc2)c2ccccc21	> 100 µM (inactive)	> 100 µM (inactive)	93.5 µM (inactive)	> 100 µM (inactive)	96.6 µM (inactive)	42.5 µM (inactive)	> 100 µM (inactive)	> 100 µM (inactive)	> 100 µM (inactive)	> 100 µM (inactive)	> 100 µM (inactive)	> 100 µM (inactive)	> 100 µM (inactive)	> 100 µM (inactive)	> 100 µM (inactive)	> 100 µM (inactive)	89.5 µM (inactive)	> 100 µM (inactive)	> 100 µM (inactive)	
CCCCCCCC1(c2ccc(N)cc2)CCC(=O)NC1=O (centres undefined)	21.9 µM (inactive)			49.7 µM (inactive)	32.4 µM (inactive)	27.2 µM (inactive)	27.4 µM (inactive)	26.7 µM (inactive)			28.7 µM (inactive)	28.1 µM (inactive)		31.6 µM (inactive)		28.1 µM (inactive)		33 µM (inactive)		33 µM (inactive)
Nc1ccc(Oc2ccc(C3(c4ccc(Oc5ccc(N)cc5)cc4)C4CC5CC(C4)CC3C5)cc2)cc1	3.72 µM (inactive)	19.9 µM (inactive)	0.489 µM (active)	22.8 µM (inactive)	3.2 µM (inactive)	11 µM (inactive)	15.8 µM (inactive)	2.42 µM (inactive)	2.91 µM (inactive)	11.6 µM (inactive)	16.5 µM (inactive)	23.7 µM (inactive)	6.64 µM (inactive)	19.9 µM (inactive)	3.42 µM (inactive)	8.71 µM (inactive)	6.32 µM (inactive)	7.31 µM (inactive)	0.231 µM (active)	
